Earlier results on two compounds are cited in patent US8633167B2, “Method for the protection of trees” (Syngenta Crop Protection LLC, priority 2006, dated 2014).

Data set [1] deals with SPB. The conditions noted are these: applied to foliage at two different rates; cited from earlier work.
Data set [2] concerns SPB. The conditions noted are these: applied by Mauget Injectors; cited from earlier work.

With `COP(=O)(NC(C)=O)SC` (stereo not shown) [acephate], in the data set on SPB [1], the SPB larval survival result was “reduce” and the “effect on eggs, pupae, callow or parent adults” value is on record as “no effect”.

On to `COP(=O)(OC)O/C(C)=C/C(=O)N(C)C` [dicrotophos], for which, in the data set with SPB [2], the egg gallery length entry is “significantly reduce” and the subsequent brood production result is on record as “significantly reduce”.
